Measured values taken from patent publication US20230417738A1, “Mass Spectrometric Determination of Cell Toxicity” (Bruker Daltonics GmbH & Co. KG, priority 2022, published 2023).

Tested on: cells of the human continuous cell line A549
Format: cell-based
Settings: 24 h
Text: The mass spectrometer 101 used was a non-spatial-resolution MALDI-ToF. Also, the matrix 29 was not true-to-position applied. Thus, the mass spectra 20 represent sum spectra of an entire sample spot 16 and have not been generated according to the invention. In addition, the mass spectra 20 are not spatially resolved. It is intended here, among other things, to clarify the cell-specific mass spectrometric signals 40, the cell-specific mass spectrometric signatures 41, the non-cell-specific mass spectrometric signals 55 and a possible determination of reference values. In particular, the mass spectrum 20 in FIG. 11 (b) is only an approximate example here, since a small residual number of animal cells 23, which were already present before the cultivation step S2 (cell seed), can generate largely weak cell-specific mass spectrometric signals 40. […] The animal cells 23 are cells of the continuous human cell line A549. The complex culture medium DMEN with 10% fetal calf serum (FCS) was used as culture medium. […]
The animal cells 23 are also cells of the human continuous cell line A549. […] Since this example is a sum mass spectrum of the entire sample spot 16 not according to the invention, sporadic weak cell-specific mass spectrometric signals 40 may be detected in this example, which are largely absent when using a spatial resolution mass spectrometer 1. […]

CCCCCCCCCCCCCC[N+](C)(C)C.[Cl-] [tetradecyltrimethylammonium chloride]
proliferation of the animal cells in the presence of the cytotoxic factor: no proliferation of the animal cells 23 occurred
